From PubChem BioAssay AID1963825 (Molecular Pharmacology Branch, DTP, NCI, 2024)

Assay: Anticancer human tumor 997537-175-T-J1-PDC patient-derived colon adenocarcinoma cell line growth inhibition [POLQ]
Details: 997537-175-T-J1-PDC complex spheroid viability, combination with POLQ inhibitors; for IC50: curve of first compound; for viability, T/C: stronger effect = lower value
Method in brief: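 Complex spheroid viability model combining PDC tumour cells with endothelial (HUVEC) and MSC stromal cells. Novobiocin, ART-558 or RP6685 were tested singly and in combination with standard and investigational anticancer drugs. Each was titrated in half-log steps from near clinical Cmax, or from 10 microM where Cmax was unknown.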

[1] = second compound 0.0316 µM, first compound 0.0316 µM
[2] = second compound 0.0316 µM, first compound 0.1 µM
[3] = second compound 0.0316 µM, first compound 0.316 µM
[4] = second compound 0.0316 µM, first compound 1 µM
[5] = second compound 0.0316 µM, first compound 3.16 µM
[6] = second compound 0.0316 µM, first compound 10 µM
[7] = second compound 0.1 µM, first compound 0.0316 µM
[8] = second compound 0.1 µM, first compound 0.1 µM
[9] = second compound 0.1 µM, first compound 0.316 µM
[10] = second compound 0.1 µM, first compound 1 µM
[11] = second compound 0.1 µM, first compound 3.16 µM
[12] = second compound 0.1 µM, first compound 10 µM
[13] = second compound 0.316 µM, first compound 0.0316 µM
[14] = second compound 0.316 µM, first compound 0.1 µM
[15] = second compound 0.316 µM, first compound 0.316 µM
[16] = second compound 0.316 µM, first compound 1 µM
[17] = second compound 0.316 µM, first compound 3.16 µM
[18] = second compound 0.316 µM, first compound 10 µM
[19] = second compound 1 µM, first compound 0.0316 µM
[20] = second compound 1 µM, first compound 0.1 µM
[21] = second compound 1 µM, first compound 0.316 µM
[22] = second compound 1 µM, first compound 1 µM
[23] = second compound 1 µM, first compound 3.16 µM
[24] = second compound 1 µM, first compound 10 µM
[25] = second compound 3.16 µM, first compound 0.0316 µM
[26] = second compound 3.16 µM, first compound 0.1 µM
[27] = second compound 3.16 µM, first compound 0.316 µM
[28] = second compound 3.16 µM, first compound 1 µM
[29] = second compound 3.16 µM, first compound 3.16 µM
[30] = second compound 3.16 µM, first compound 10 µM
[31] = second compound 10 µM, first compound 0.0316 µM
[32] = second compound 10 µM, first compound 0.1 µM
[33] = second compound 10 µM, first compound 0.316 µM
[34] = second compound 10 µM, first compound 1 µM
[35] = second compound 10 µM, first compound 3.16 µM
[36] = second compound 10 µM, first compound 10 µM
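Also: luminescence signal used as a surrogate for viable cells; spheroids exposed to drugs for seven days before readout.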

`CCc1cc2c(N3CCc4c(cc(Cn5ccnc5)cc4-c4cn(C)nc4C(F)(F)F)C3=O)cc(C)nc2c(OC)n1` + Cc1cccc(N(C)C(=O)C2C(O)CCN2c2nc(C)cc(C(F)(F)F)c2C#N)c1 gave an IC50 (second compound 0.0316 µM) greater than 10 µM, an IC50 (second compound 0.1 µM) greater than 10 µM and an IC50 (second compound 0.316 µM) greater than 10 µM. The IC50 (second compound 1 µM) was greater than 10 µM, the IC50 (second compound 3.16 µM) was greater than 10 µM and the IC50 (second compound 10 µM) was greater than 10 µM. For the same compound, the viability, T/C [1] was 109%, the viability, T/C [2] was 113% and the viability, T/C [3] was 97%. It also gave a viability, T/C [4] of 82.8%, a viability, T/C [5] of 87.1% and a viability, T/C [6] of 52.4%. It also gave a viability, T/C [7] of 108%, a viability, T/C [8] of 105% and a viability, T/C [9] of 84.1%. For the same compound, the viability, T/C [10] was 90.6%, the viability, T/C [11] was 75.2% and the viability, T/C [12] was 74.6%. For the same compound, the viability, T/C [13] was 83.5%, the viability, T/C [14] was 103% and the viability, T/C [15] was 82.6%. The viability, T/C [16] was 84.1%, the viability, T/C [17] was 82.9% and the viability, T/C [18] was 60.9%. For the same compound, the viability, T/C [19] was 91.2%, the viability, T/C [20] was 91.7% and the viability, T/C [21] was 85.9%. It also gave a viability, T/C [22] of 86.9%, a viability, T/C [23] of 111% and a viability, T/C [24] of 63.3%. The viability, T/C [25] was 97.1%, the viability, T/C [26] was 115% and the viability, T/C [27] was 92.2%. For the same compound, the viability, T/C [28] was 82.7%, the viability, T/C [29] was 61.6% and the viability, T/C [30] was 59.5%. The viability, T/C [31] was 102%, the viability, T/C [32] was 91.8% and the viability, T/C [33] was 105%. The viability, T/C [34] was 77.2%, the viability, T/C [35] was 74% and the viability, T/C [36] was 53.6%.

Compound `COc1cc2cc(C(=O)CCC(=O)O)sc2cc1OC` + Cc1cccc(N(C)C(=O)C2C(O)CCN2c2nc(C)cc(C(F)(F)F)c2C#N)c1 has an IC50 (second compound 0.0316 µM) greater than 10 µM, an IC50 (second compound 0.1 µM) greater than 10 µM and an IC50 (second compound 0.316 µM) greater than 10 µM. For the same compound, the IC50 (second compound 1 µM) was greater than 10 µM, the IC50 (second compound 3.16 µM) was greater than 10 µM and the IC50 (second compound 10 µM) was greater than 10 µM. The viability, T/C [1] was 110%, the viability, T/C [2] was 102% and the viability, T/C [3] was 99.3%. The viability, T/C [4] was 111%, the viability, T/C [5] was 98.4% and the viability, T/C [6] was 88.3%. The viability, T/C [7] was 98.7%, the viability, T/C [8] was 120% and the viability, T/C [9] was 94.7%. It also gave a viability, T/C [10] of 105%, a viability, T/C [11] of 99.3% and a viability, T/C [12] of 93.3%. The viability, T/C [13] was 105%, the viability, T/C [14] was 97.7% and the viability, T/C [15] was 87.5%. The viability, T/C [16] was 80.8%, the viability, T/C [17] was 98.6% and the viability, T/C [18] was 93.6%. The viability, T/C [19] was 108%, the viability, T/C [20] was 90.5% and the viability, T/C [21] was 105%. For the same compound, the viability, T/C [22] was 102%, the viability, T/C [23] was 101% and the viability, T/C [24] was 92.8%. It also gave a viability, T/C [25] of 94.5%, a viability, T/C [26] of 121% and a viability, T/C [27] of 90.5%. For the same compound, the viability, T/C [28] was 96.2%, the viability, T/C [29] was 115% and the viability, T/C [30] was 97.8%. For the same compound, the viability, T/C [31] was 98%, the viability, T/C [32] was 104% and the viability, T/C [33] was 107%. It also gave a viability, T/C [34] of 105%, a viability, T/C [35] of 118% and a viability, T/C [36] of 87.3%.
